Measurements from PMC11900394, “1-Pyrene Carboxylic Acid: An Internalization Enhancer for Short Oligoarginines” (International Journal of Molecular Sciences, 2025).
Like-named read-outs stand apart in the source and are kept apart here. Numbered stars: 1 amine (or outer) side, 2 acyl side, 3 side chain; on linkers, the order of the positions; unused ones are H or OH. Side chains are listed from the residue outwards. Peptide text beside a SMILES is read from it. * marks the point of attachment. Daunorubicin = COc1cccc2c1C(=O)c1c(O)c3c(c(O)c1C2=O)C[C@@](O)(C(C)=O)C[C@@H]3O[C@H]1C[C@H](N*)[C@H](O)[C@H](C)O1; 1Pyrenoyl = O=C(c1ccc2ccc3cccc4ccc1c2c34)*; Suc = O=C(CCC(=O)[*:2])[*:1]

What was measured:
MDA-MB-231 cells [1] = assay: In vitro cytostatic activity, Alamar-blue assay; format: cell-based, human; settings: 3 h treatment, then 3 days in serum-containing medium, four parallels, two independent experiments, read-out: IC50 ± SD, cytostatic activity
Experimental: The in vitro measurements were carried out on 96-well plates containing 5 × 10^3 MDA-MB-231 cells per well. The cells were incubated for 24 h at 37 °C. The measurement started with treating these cells with the solutions of compounds for 3 h, where the final volume was 200 μL. The cytostatic activity was measured on a broad spectrum of concentrations between 0.000128 and 100 μM. Serum-free medium was used on cells for 3 h at 37 °C as control. After treatment, the compounds were washed out using a serum-free medium twice. The cells were then cultured for 72 h in a medium with serum. Alamar-blue (Resazurim) assay was used to determine the ratio of live cells and thus the IC50. Briefly, Alamar-blue solution (22.5 μL, 0.15 mg/mL in PBS (pH = 7)) was added to the cells. Synergy H4 multimode microplate reader (BioTek, Winooski, VT, USA) was used to determine the fluorescence (at λ = 530/30 nm and 610/10 nm) after 4 h incubation. Cytostasis was calculated as Cytostatic effect (%) = [1 − (ODtreated/ODcontrol)] × 100; where ODtreated and ODcontrol correspond to the optical densities of the treated and untreated cells, respectively. […] The curves were defined using MicrocalTM Origin (version 8.0, OriginLab, Northampton, MA, USA) software: cytostasis was plotted as a function of concentration, fitted to a sigmoidal curve, and the IC50 value was determined. […]

MDA-MB-231 cells [2] = assay: Intracellular localization by confocal laser scanning microscopy; format: cell-based, human; settings: MDA-MB-231, 5 μM, 15, 45 and 90 min; CLSM
MDA-MB-231 cells [3] = settings: ref [31], read-out: IC50, cytostatic activity; cited from earlier work
Source text: Table 2 The cytostatic activity of peptide-drug conjugates on MDA-MB-231. | column: IC50 ± SD (µM) * / MDA-MB-231

Compound | IC50 (MDA-MB-231 cells [1]) [µM] | other results
COc1cccc2c1C(=O)c1c(O)c3c(c(O)c1C2=O)C[C@@](O)(C(C)=O)C[C@@H]3O[C@H]1C[C@H](NC(=O)CCC(=O)N[C@@H](CCCNC(=N)N)C(=O)N[C@@H](CCCNC(=N)N)C(=O)N[C@@H](CCCNC(=N)N)C(=O)N[C@@H](CCCNC(=N)N)C(=O)N[C@@H](CCCNC(=N)N)C(=O)N[C@@H](CCCNC(=N)N)C(=O)N[C@@H](CCCNC(=N)N)C(=O)N[C@@H](CCCNC(=N)N)C(=O)N[C@@H](CCCCNC(=O)c2ccc3ccc4cccc5ccc2c3c45)C(N)=O)[C@H](O)[C@H](C)O1 [DauSuc-Arg8-Lys(PCA)] | 23.7 ± 4.3 | –
COc1cccc2c1C(=O)c1c(O)c3c(c(O)c1C2=O)C[C@@](O)(C(C)=O)C[C@@H]3O[C@H]1C[C@H](NC(=O)CCC(=O)NCCCC[C@H](NC(=O)[C@H](CCCNC(=N)N)NC(=O)[C@H](CCCNC(=N)N)NC(=O)[C@H](CCCNC(=N)N)NC(=O)[C@H](CCCNC(=N)N)NC(=O)[C@H](CCCNC(=N)N)NC(=O)[C@H](CCCNC(=N)N)NC(=O)[C@H](CCCNC(=N)N)NC(=O)[C@H](CCCNC(=N)N)NC(=O)c2ccc3ccc4cccc5ccc2c3c45)C(N)=O)[C@H](O)[C@H](C)O1 [PCA-Arg8-Lys(DauSuc)] | 28.1 ± 7.5 | –
COc1cccc2c1C(=O)c1c(O)c3c(c(O)c1C2=O)C[C@@](O)(C(C)=O)C[C@@H]3O[C@H]1C[C@H](NC(=O)CCC(=O)NCCCC[C@H](NC(=O)[C@H](CCCNC(=N)N)NC(=O)[C@H](CCCNC(=N)N)NC(=O)[C@H](CCCNC(=N)N)NC(=O)[C@H](CCCNC(=N)N)NC(=O)[C@H](Cc2c[nH]c3ccccc23)NC(=O)c2ccc3ccc4cccc5ccc2c3c45)C(N)=O)[C@H](O)[C@H](C)O1 [PCA-Trp-Arg4-Lys(DauSuc)] (1Pyrenoyl-WRRRRK([Suc-Daunorubicin])-NH2) | – | Internalization of DauSuc conjugates (Dau fluorescence) (MDA-MB-231 cells [2]): very efficient internalization
succinylated daunomycin [DauSuc] | – | IC50 (MDA-MB-231 cells [3]): > 100 µM
